Experimental data from patent US9296755B2, “3,4-dihydro-1H-pyrimido[1,6-a]pyrimidin-6(2H)-one compounds and their therapeutic applications” (GlaxoSmithKline Intellectual Property Development Limited, priority 2013, dated 2016).

What was measured:
[1] = test system: rat EAE model; test: Rat experimental autoimmune encephalomyelitis (EAE) model, preventive treatment; format: in vivo; details: MBP immunization, administered day 0 to day 22
Description: (§1) A further study was carried out to study the impact of Lp-PLA2 inhibitors on modulating M1/M2 imbalance. In this study, rats were induced to develop experimental autoimmune encephalomyelitis (EAE) by immunization with myelin basic protein (MBP) antigen and treated with a known Lp-PLA2 inhibitor: 5-((9-Methoxy-4-oxo-6,7-dihydro-4H-pyrimido[6,1-a]isoquinolin-2-yl)oxy)-2-(3-(trifluoromethyl)phenoxy)benzonitrile (See PCT application no. PCT/CN2011/001597). In this preventive treatment model, the compound was administered at day 0 (day of immunization) and continued to administer until day 22. The study lasted for 25 days. Rats were subsequently monitored for symptoms of EAE. Rats were immunized with MBP to develop EAE and symptoms were monitored daily. Plasma Lp-PLA2 activity, OxLDL, and LysoPC concentration were determined at different time points through the course of EAE.

[2] = target: T1, Lp-PLA2 (Rattus norvegicus, UniProt A6JJ35); test: Plasma Lp-PLA2 activity and LysoPC in rat EAE plasma; format: in vivo
T1 construct: from tissue; host or cells: plasma of EAE rats
T1 sequence (A6JJ35 22-440): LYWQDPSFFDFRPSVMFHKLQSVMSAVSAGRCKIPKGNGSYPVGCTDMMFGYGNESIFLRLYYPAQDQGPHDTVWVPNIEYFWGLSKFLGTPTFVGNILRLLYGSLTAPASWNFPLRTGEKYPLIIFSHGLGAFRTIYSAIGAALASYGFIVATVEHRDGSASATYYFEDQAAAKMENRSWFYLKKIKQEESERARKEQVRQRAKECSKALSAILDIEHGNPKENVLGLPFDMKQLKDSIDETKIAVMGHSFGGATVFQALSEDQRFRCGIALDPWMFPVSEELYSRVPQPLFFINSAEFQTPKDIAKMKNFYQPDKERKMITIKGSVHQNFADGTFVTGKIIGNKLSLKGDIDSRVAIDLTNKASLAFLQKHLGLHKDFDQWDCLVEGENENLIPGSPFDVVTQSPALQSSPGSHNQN
Description: as §1

[3] = test system: Lp-PLA2; test: as above; format: in vivo
Description: as §1

[4] = test system: proinflammatory (M1) and anti-inflammatory (M2) markers; test: Ex vivo analysis of M1 and M2 markers in macrophages of EAE rats by realtime PCR; set-up: species or system rat; details: splenic macrophages day 13 post MBP-immunization and CNS infiltrating macrophages
Description: Ex vivo analysis of proinflammatory (M1) and anti-inflammatory (M2) markers in control and compound treated EAE rats. Splenic macrophages were harvested at day 13 post MBP-immunization and assayed for expression of a variety of markers by realtime PCR. CNS infiltrating cells were harvested and macrophages were analyzed for expression of M1 and M2 markers by realtime PCR.

[5] = target: Recombinant human PLA2 VIIB (Homo sapiens, UniProt Q99487); test: PLA2 VIIB assay; format: biochemical
From the text: PLA2 VIIB (also known as Novel Serine Dependent Lipase, NSDL) is a serine hydrolase with 40% amino acid identity with human Lp-PLA2. Sequence comparisons indicate that the PLA VIIB active site catalytic triad positions are similar to those of Lp-PLA2. Similar to Lp-PLA2, it is capable of hydrolyzing oxidatively modified phospholipids and may be assayed using known Lp-PLA2 substrates.
Upon cleavage by a phopholipase, […] liberates a fluorescent Bodipy group. Recombinant human PLA2 VIIB is used as the phospholipase source in this assay, and compounds are screened to test their degree of inhibition in this assay. The assay is used to determine the degree of selectivity of the testing compounds between PLA2 VIIB and Lp-PLA2.
The PLA2 VIIB assay was applied as an unquenched 10 μL assay. The source plate containing the compounds is prepared by making 1:3 (by volume) serial dilution of the compounds with pure DMSO on 384-well microplate. 0.01 μL of compounds on the compound source plate were transferred into 384 well Greiner 784076 (black) plates by ECHO liquid dispenser. 5 μL of Novel Serine Dependent Lipase (NSDL) enzyme (5 nM NSDL in assay buffer of 50 mM HEPES, pH 7.4, 150 mM NaCl, 1 mM CHAPS) was added to each well. […] Plates were kinetic read by starting read immediately after PED6 addition at ex: 480/em:540 using ViewLux microplate reader or Envision spectrofluorimeters. […]

Row | Lp-PLA2 activity in rat EAE plasma [2] | selectivity between human recombinant Lp-PLA2 and PLA2 VIIB [5] [fold] | SMILES | clinical disease (EAE) [1] | LysoPC levels in rat EAE plasma [3] | M1 markers [4] | M2 markers [4]
1 | decreased | – | COc1ccc2c(c1)CCn1c-2cc(Oc2ccc(Oc3cccc(C(F)(F)F)c3)c(C#N)c2)nc1=O [5-((9-Methoxy-4-oxo-6,7-dihydro-4H-pyrimido[6,1-a]isoquinolin-2-yl)oxy)-2-(3-(trifluoromethyl)phenoxy)benzonitrile] | reduction in clinical disease | decreased | decrease | increase
2 | – | ≤ 100 | Cc1ccccc1CN1CCCn2c1cc(OCc1ccc(F)c(F)c1)nc2=O [Example E7, 8-((3,4-difluorobenzyl)oxy)-1-(2-methylbenzyl)-3,4-dihydro-1H-pyrimdo[1,6-a]pyrimidin-6(2H)-one] | – | – | – | –
